Experimental data published in patent US20140100156A1 (SANOFI, priority 2012, published 2014).

Tests used:
Format in all cases: in vivo
female NMRI-mice = assay: Automated assessment of feed intake in mice; conditions: 22 hours
Procedure: Female NMRI-mice of a body weight between 20 and 30 g were used. Mice were adapted to housing conditions for at least one week and for at least one day single-caged in the assessment equipment, when basal data were recorded simultaneously. On the study day, test product was administered subcutaneously close to the lights-off phase (12 h lights off) and assessment of feed consumption was directly started afterwards. Assessment included continued monitoring (every 30 min) over 22 hours. Repetition of this procedure over several days was possible. Restriction of assessment to 22 hours was for practical reasons to allow for reweighing of animals, refilling of feed and water and drug administration between procedures. Results could be assessed as cumulated data over 22 hours or differentiated to 30 min intervals.
Statistical analyses were performed with Everstat 6.0 by two-way ANOVA on repeated measures and Dunnetts post-hoc analyses. Differences were considered statistically significant at the p<0.05 level.
Fed female NMRI-mice, weighing on average 25-30 g, were administered 0.01 or 0.1 mg/kg of SEQ ID NO: 97 or phosphate buffered saline (vehicle control) subcutaneously, directly prior to start of feeding monitoring (time=0 h). Lights-off phase (dark phase) started 4 hours later.

[1] = system: female leptin-receptor deficient diabetic db/db mice; assay: Subchronic effect on blood glucose and HbA1c in female db/db mice
From the text: Female BKS.Cg-m+/+Leprdb/J (db/db) and BKS.Cg-m+/+Leprdb/+ (lean control) mice were obtained from Charles River Laboratories, Germany, at an age of 9-10 weeks. The animals were housed in groups in a specific pathogen-free barrier facility on a 12-h light/dark cycle with free access to water and rodent-standard chow. After 1 week of acclimatization, blood samples were drawn from the tail without anaesthesia and blood glucose (method: d-glucose hexokinase, hemolysate, AU640 Beckman Coulter) and HbA1c level (method: hemolysate, Cobas6000 c501, Roche Diagnostics, Germany) were determined. […]
2) Subchronic effect on blood glucose and HbA1c: all animals were treated once daily s.c. with either vehicle or exendin-4 derivatives at the abovementioned doses for 4 weeks. At the end of the study, blood samples (tail, no anaesthesia) were analyzed for glucose and HbA1c. […]
Female diabetic mice were treated for 4 weeks once daily subcutaneously with 3, 10 or 100 μg/kg SEQ ID NO: 97 or vehicle. Blood glucose and HbA1c were determined before start of treatment and at the end of the study after 4 weeks of treatment.
Female diabetic mice were treated for 4 weeks subcutaneously with 50 μg/kg SEQ ID NO: 24 or vehicle twice daily. Blood glucose and HbA1c were determined before start of treatment and at the end of the study after 4 weeks of treatment.

[2] = system: female diet-induced obese (DIO) C57BL/6NCrl mice; assay: Acute effect on blood glucose in fed female diet-induced obese (DIO) C57BL/6NCrl mice
From the text: Female C57BL/6NCrl mice were housed in groups in a specific pathogen-free barrier facility on a 12-h light/dark cycle with free access to water and high-fat diet. After 10 months on high-fat diet, mice were stratified to treatment groups (n=8), so that each group had similar mean body weight.
An aged-matched group with ad-libitum access to standard chow was included as standard control group.
Before the experiment, mice were subcutaneously (s.c.) injected with vehicle solution and weighed for 3 days to acclimate them to the procedures.
1) Acute effect on blood glucose in fed DIO mice: initial blood samples were taken just before first administration (s.c.) of vehicle (phosphate buffer solution) or the exendin-4 derivatives at doses of 3, 10, and 100 μg/kg (dissolved in phosphate puffer), respectively. The volume of administration was 5 mL/kg. The animals had access to water and their corresponding diet during the experiment, food consumption was determined at all time points of blood sampling. Blood glucose levels were measured at t=0.5 h, t=1 h, t=2 h, t=4 h, t=6 h, t=8 h, and t=24 h (method: d-glucose hexokinase, hemolysate, AU640 Beckman Coulter). Blood sampling was performed by tail incision without anaesthesia.
Statistical analyses were performed with Everstat 6.0 by repeated measures two-way ANOVA and Dunnetts post-hoc analyses (glucose profile) and 1-way-ANOVA, followed by Dunnetts post-hoc test (body weight, body fat). Differences versus vehicle-treated DIO control mice were considered statistically significant at the p<0.05 level.
After blood sampling to determine the blood glucose baseline level, fed diet-induced obese female C57BL/6NCrI mice were administered 3, 10 or 100 μg/kg of SEQ ID NO: 97 or phosphate buffered solution (vehicle control on standard or high-fat diet) subcutaneously. At predefined time points, more blood samples were taken to measure blood glucose and generate the blood glucose profile over 24 h.

## SEQ ID NO: 97: exendin-4 derivative, K(γE-x53) in position 14 (HXQGTFTSDLSKQKDSRRAQDFIEWLKNGGPSSGAPPPS; K14 side chain γE-x53; Exendin-4-analogue)
Female NMRI-mice; 0.01 mg/kg s.c.
  reduction of feed intake at the end of the study: 23%
Female NMRI-mice; 0.1 mg/kg s.c.
  reduction of feed intake at the end of the study: 66%
[1]; 3, 10 or 100 μg/kg s.c. once daily, 4 weeks (all dose groups)
  blood glucose level versus db control mice at the end of the study: significant lower blood glucose level
[1]; high dose (100 μg/kg s.c. once daily), 4 weeks
  HbA1c level versus db control mice at the end of the study: significant lower HbA1c level
[2]; high dose (100 μg/kg s.c.)
  duration of decrease in blood glucose compared to DIO control mice: > 24 h
[2]; low dose (3 μg/kg s.c.)
  duration of decrease in blood glucose compared to DIO control mice: at least 8 h
[2]; medium dose (10 μg/kg s.c.)
  duration of decrease in blood glucose compared to DIO control mice: at least 8 h
